Columns and labels:
human O-GlcNAcase = human O-GlcNAcase (Homo sapiens (Human), UniProt O60502); experiment: Assay for determination of Ki values for inhibition of O-GlcNAcase activity (fluorescence-based); type: biochemical; conditions: purified human O-GlcNAcase 0.7 nM, 2 mM 4-methylumbelliferyl N-acetyl-β-D-glucosaminide, pH 7.0, Cheng-Prusoff; read-out: Fluorescence-based hOGA Ki
Method: Experimental procedure for kinetic analyses: Enzymatic reactions were carried out in a reaction containing 50 mM NaH2PO4, 100 mM NaCl and 0.1% BSA (pH 7.0) using 2 mM 4-Methylumbelliferyl N-acetyl-β-D-glucosaminide dihydrate (Sigma M2133) dissolved in ddH2O, as a substrate. The amount of purified human O-GlcNAcase enzyme used in the reaction was 0.7 nM. Test compound of varying concentrations was added to the enzyme prior to initiation of the reaction. The reaction was performed at room temperature in a 96-well plate and was initiated with the addition of substrate. […] The slope of product production was determined for each concentration of compound tested and plotted, using standard curve fitting algorithms for sigmoidal dose response curves. The values for a four parameter logistic curve fit of the data were determined.

[1] = Assay for determination of apparent permeability (Papp), bi-directional transport; type: in vitro ADME; conditions: pig, LLC-PK1; 1 μM test compound, t=3 h, average of A to B and B to A; read-out: Papp LLC-PK-1 cells
Method: Bi-directional transport was evaluated in LLC-PK1 cells in order to determine apparent permeability (Papp). LLC-PK1 cells can form a tight monolayer and therefore can be used to assess vectorial transport of compounds from basolateral to apical (B→A) and from apical to basolateral (A→B).
To determine Papp, LLC-PK1 cells were cultured in 96-well transwell culture plates (Millipore). Solutions containing the test compounds (1 μM) were prepared in Hank's Balanced Salt Solution with 10 mM HEPES. Substrate solution (150 μL) was added to either the apical (A) or the basolateral (B) compartment of the culture plate, and buffer (150 μL) was added to the compartment opposite to that containing the compound. At t=3 h, 50 μL samples were removed from both sides of monolayers dosed with test compound and placed in 96 well plates, scintillant (200 μL) or internal standard (100 μL labetolol 104) was added to the samples and concentration was determined by liquid scintillation counting in a MicroBeta Wallac Trilux scintillation counter (Perkin Elmer Life Sciences, Boston, Mass.) or by LCMS/MS (Applied Biosystems SCIEX API 5000 triple quadruple mass spectrometer). [^3H]Verapamil (1 μM) was used as the positive control. The experiment was performed in triplicate.
The apparent permeability, Papp, was calculated by the following formula for samples taken at t=3 h:
[formula] Where: Volume of Receptor Chamber was 0.15 mL; Area of membrane was 0.11 cm^2; the Initial Concentration is the sum of the concentration measured in the donor plus concentration measured in receiver compartments at t=3 h; Δ in Concentration is concentration in the receiver compartment at 3 h; and Δ in Time is the incubation time (3×60×60=10800 s). Papp was expressed as 10^−6 cm/s. The Papp (LLC-PK1 cells) are the average of the Papp for transport from A to B and Papp for transport from B to A at t=3 h: […]

[2] = tested on: O-GlcNAcylated protein in rat PC-12 cells; experiment: Cell-based ELISA for cellular activity of O-GlcNAcase inhibitors (RL-2 antibody); conditions: 24 h treatment, increase in O-GlcNAcylated protein detected with RL-2 antibody
Excerpt: Inhibition of O-GlcNAcase, which removes O-GlcNAc from cellular proteins, results in an increase in the level of O-GlcNAcylated protein in cells. An increase in O-GlcNAcylated protein can be measured by an antibody, such as RL-2, that binds to O-GlcNAcylated protein. The amount of O-GleNAcylated protein:RL2 antibody interaction can be measured by enzyme linked immunosorbant assay (ELISA) procedures.
A variety of tissue culture cell lines, expressing endogenous levels of O-GlcNAcase, can be utilized; examples include rat PC-12, and human U-87, or SK-N-SH cells. In this assay,rat PC-12 cells were plated in 96-well plates with approximately 10,000 cells/well. Compounds to be tested were dissolved in DMSO, either 2 or 10 mM stock solution, and then diluted with DMSO and water in a two-step process using a Tecan workstation. […] To prepare a cell lysate, the media from compound treated cells was removed, the cells were washed once with phosphate buffered saline (PBS) and then lysed for 5 minutes at room temperature in 50 μL of Phosphosafe reagent (Novagen Inc, Madison, Wis.) with protease inhibitors and PMSF. The cell lysate was collected and transferred to a new plate, which was then either coated to assay plates directly or frozen −80° C. until used in the ELISA procedure. If desired, the total protein concentration of samples was determined using 20 μL of the sample using the BCA method.
The ELISA portion of the assay was performed in a black Maxisorp 96-well plate that was coated overnight at 4° C. with 100 μL/well of the cell lysate (1:10 dilution of the lysate with PBS containing protease inhibitors, phosphatase inhibitors, and PMSF). The following day the wells were washed 3 times with 300 μL/well of Wash buffer (Tris-buffered saline with 0.1% Tween 20). The wells were blocked with 100 μl/well Blocking buffer (Tris buffered saline w/0.05% Tween 20 and 2.5% Bovine serum albumin). Each well was then washed two times with 300 μL/well of wash buffer. […] The plate was sealed and incubated at 37° C. for 2 h with gentle shaking. The wells were then washed 3-times with 300 μL/well wash buffer. […] The plate was incubated for 60 min at 37° C. with gentle shaking. Each well was then washed 3-times with 300 μL/well wash buffer. The detection reagent was added, 100 μL/well of Amplex Ultra RED reagent (prepared by adding 30 μL of 10 mM Amplex Ultra Red stock solution to 10 mL PBS with 18 μL 3% hydrogen peroxide, H2O2). The detection reaction was incubated for 15 minutes at room temperature and then read with excitation at 530 nm and emission at 590 nm.
The amount of O-GlcNAcylated protein, as detected by the ELISA assay, was plotted for each concentration of test compound using standard curve fitting algorithms for sigmoidal dose response curves. The values for a four parameter logistic curve fit of the data were determined, with the inflection point of the curve being the potency value for the test compound.

Sequence of human O-GlcNAcase (O60502 whole entry): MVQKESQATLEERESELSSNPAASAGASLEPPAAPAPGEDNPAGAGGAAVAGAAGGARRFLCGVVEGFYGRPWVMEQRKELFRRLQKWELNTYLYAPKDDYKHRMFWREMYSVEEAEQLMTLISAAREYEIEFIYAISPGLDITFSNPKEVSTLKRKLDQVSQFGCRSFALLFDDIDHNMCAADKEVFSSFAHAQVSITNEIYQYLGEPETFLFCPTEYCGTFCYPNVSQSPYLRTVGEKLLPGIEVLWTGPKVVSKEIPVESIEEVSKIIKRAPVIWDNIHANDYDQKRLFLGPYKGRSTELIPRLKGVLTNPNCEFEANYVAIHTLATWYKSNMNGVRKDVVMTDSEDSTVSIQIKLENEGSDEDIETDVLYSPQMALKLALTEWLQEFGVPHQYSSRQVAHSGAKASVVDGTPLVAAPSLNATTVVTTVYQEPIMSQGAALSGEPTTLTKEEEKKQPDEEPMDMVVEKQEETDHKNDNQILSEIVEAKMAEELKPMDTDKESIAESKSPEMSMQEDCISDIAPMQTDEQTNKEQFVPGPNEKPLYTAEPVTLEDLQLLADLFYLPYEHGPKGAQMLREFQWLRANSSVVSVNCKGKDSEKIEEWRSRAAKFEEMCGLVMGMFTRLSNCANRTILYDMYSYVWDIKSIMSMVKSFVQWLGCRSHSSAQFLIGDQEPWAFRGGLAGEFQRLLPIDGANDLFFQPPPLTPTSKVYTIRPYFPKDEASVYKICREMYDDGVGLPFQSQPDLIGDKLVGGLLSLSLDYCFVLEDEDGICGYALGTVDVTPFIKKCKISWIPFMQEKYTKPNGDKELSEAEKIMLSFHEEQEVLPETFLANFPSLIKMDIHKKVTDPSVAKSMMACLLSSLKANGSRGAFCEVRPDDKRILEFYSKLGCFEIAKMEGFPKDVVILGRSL

SMILES	Ki (human O-GlcNAcase) [nM]	Papp at 3 h, 1 μM [1] [×10⁻⁶ cm/s]	EC50 [2] [nM]
CN(C)C1=N[C@@H]2[C@@H](O)[C@H](O)[C@@H](CO)O[C@@H]2S1 [(3aR,5R,6S,7R,7aR)-2-(dimethylamino)-5-(hydroxymethyl)-5,6,7,7a-tetrahydro-3aH-pyrano[3,2-d]thiazole-6,7-diol, reference compound]	0.3	< 1	10
CCNC1=N[C@@H]2[C@@H](O)[C@H](O)[C@@H](CO)O[C@@H]2S1 [(3aR,5R,6S,7R,7aR)-2-(ethylamino)-5-(hydroxymethyl)-5,6,7,7a-tetrahydro-3aH-pyrano[3,2-d]thiazole-6,7-diol, reference compound]	–	< 1	–
CCNC1=N[C@@H]2[C@@H](O)[C@H](O)[C@@H](C)O[C@@H]2S1 [Example 1, (3aR,5R,6S,7R,7aR)-2-(ethylamino)-5-methyl-5,6,7,7a-tetrahydro-3aH-pyrano[3,2-d]thiazole-6,7-diol]	70	–	–
CCNC1=N[C@@H]2C[C@H](O)[C@@H](CO)O[C@@H]2S1 [Example 2, (3aR,5R,6S,7aR)-2-(ethylamino)-5-(hydroxymethyl)-5,6,7,7a-tetrahydro-3aH-pyrano[3,2-d]thiazol-6-ol]	–	3.8	–
CNC1=N[C@@H]2[C@@H](F)[C@H](O)[C@@H](CO)O[C@@H]2S1 [Example 9, (3aR,5R,6R,7R,7aR)-7-fluoro-5-(hydroxymethyl)-2-(methylamino)-5,6,7,7a-tetrahydro-3aH-pyrano[3,2-d]thiazol-6-ol]	1.3	–	307
CNC1=N[C@@H]2[C@@H](O)[C@H](O)[C@@H](CF)O[C@@H]2S1 [Example 17, (3aR,5S,6S,7R,7aR)-5-(fluoromethyl)-2-(methylamino)-5,6,7,7a-tetrahydro-3aH-pyrano[3,2-d]thiazole-6,7-diol]	0.5	7.1	34
CCNC1=N[C@@H]2[C@@H](O)[C@H](O)[C@@H](C(F)F)O[C@@H]2S1 [Example 19, (3aR,5S,6S,7R,7aR)-5-(difluoromethyl)-2-(ethylamino)-5,6,7,7a-tetrahydro-3aH-pyrano[3,2-d]thiazole-6,7-diol]	5.7	6	53
CN(C)C1=N[C@@H]2[C@@H](O)[C@H](O)[C@@H](C(F)F)O[C@@H]2S1 [Example 20, (3aR,5S,6S,7R,7aR)-5-(difluoromethyl)-2-(dimethylamino)-5,6,7,7a-tetrahydro-3aH-pyrano[3,2-d]thiazole-6,7-diol]	1.4	13.7	6
CNC1=N[C@@H]2C[C@H](O)[C@@H](C(F)F)O[C@@H]2S1 [Example 27, (3aR,5S,6S,7aR)-5-(difluoromethyl)-2-(methylamino)-5,6,7,7a-tetrahydro-3aH-pyrano[3,2-d]thiazol-6-ol]	28	24	–
CCNC1=N[C@@H]2[C@@H](O)[C@@H](O)[C@@H](C(F)F)O[C@@H]2S1 [Example 29, (3aR,5S,6R,7R,7aR)-5-(difluoromethyl)-2-(ethylamino)-5,6,7,7a-tetrahydro-3aH-pyrano[3,2-d]thiazole-6,7-diol]	164	–	–
CNC1=N[C@@H]2[C@H](F)[C@H](O)[C@@H](C(F)F)O[C@@H]2S1 [Example 33, (3aR,5S,6R,7S,7aR)-5-(difluoromethyl)-7-fluoro-2-(methylamino)-5,6,7,7a-tetrahydro-3aH-pyrano[3,2-d]thiazol-6-ol]	13	20.1	–
